We go through two compounds from ChEMBL document CHEMBL3352231, “Conformational analysis of an anti-androgenic, (E,E)-8-hydroxygermacrene B, using NOESY and dynamic NMR spectroscopy” (Bioorg Med Chem Lett, 2014).

By IC50 is commonly meant the concentration needed to halve the response being measured.

In this experiment the target is T1, 3-oxo-5-alpha-steroid 4-dehydrogenase 1 (Rattus norvegicus, UniProt P24008).
T1 sequence (P24008 whole entry): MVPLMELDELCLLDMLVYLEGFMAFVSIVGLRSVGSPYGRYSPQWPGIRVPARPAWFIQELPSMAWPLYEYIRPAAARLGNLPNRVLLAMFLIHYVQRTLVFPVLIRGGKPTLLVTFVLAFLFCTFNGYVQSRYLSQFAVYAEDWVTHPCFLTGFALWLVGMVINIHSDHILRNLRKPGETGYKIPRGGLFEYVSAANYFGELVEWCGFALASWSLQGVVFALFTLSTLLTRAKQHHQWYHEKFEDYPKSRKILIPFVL
Nature of the experiment: Inhibition of Sprague-Dawley rat liver steroid 5-alpha-reductase assessed as inhibition of testosterone conversion to dihydrotestosterone incubated for 30 mins by HPLC method.

In the case of `CC(C)=C1C/C=C(/C)CC/C=C(/C)CC1=O`, the IC50 amounted to 1940 µM.
Take `C#C[C@]1(O)CC[C@H]2[C@@H]3CCc4cc(O)ccc4[C@H]3CC[C@@]21C` [ETHINYL ESTRADIOL]: the IC50 is 960 µM.
